Measured values published in US20130204033A1, “ANTIPROLIFERATIVE COMPOUNDS, CONJUGATES THEREOF, METHODS THEREFOR, AND USES THEREOF” (Medarex, Inc., priority 2009, published 2013).
Read-outs that look alike come from different tables or passages of the source. One block for each compound: values may come before it.

Key:
Assay type in all cases: cell-based, human
HPAC [1] = test: 3H thymidine proliferation assay, HPAC; conditions: 3H thymidine method, 72 h incubation, read-out: EC50, HPAC
Method: (§1) This example generally describes the procedures used to assay the antiproliferative activity of compounds of this invention or their conjugates. Human tumor cell lines were obtained from the American Type Culture Collection (ATCC), P.O. Box 1549, Manassas, Va. 20108, USA, and cultured according to instruction from the ATCC. Cells were seeded at 1.0×10^3 or 1.0×10^4 cells/well in 96-well plates for 3 h for ATP assays or ^3H thymidine assays, respectively. 1:3 serial dilutions of free (unconjugated) compounds or their conjugates were added to the wells. Plates were allowed to incubate for 24 to 72 h. The ^3H thymidine plates were pulsed with 1.0 μCi of ^3H-thymidine per well for the last 24 hours of the total incubation period, harvested, and read on a Top Count Scintillation Counter (Packard Instruments, Meriden, Conn.). ATP levels in the ATP plates were measured using the […]-GLO® Luminescent Cell Viability kit following the manufacturer's manual and read on a GLOMAX® 20/20 luminometer (both from Promega, Madison, Wis., USA). The EC50 values—the concentration at which an agent inhibits or reduces cell proliferation by 50% —were determined using PRISM™ software, version 4.0 (GraphPad Software, La Jolla, Calif., USA).
(§2) Using the ^3H thymidine or the ATP luminescence assay, or both, the activities of compounds of this invention were assayed against the following cancer cell lines: HCT-15 (colorectal cancer, multi-drug resistant (MDR)); Hep3B (liver cancer); LNCaP (prostate cancer, androgen receptor positive (AR^+)); MDA-MB-231 (breast cancer, estrogen receptor, progesterone receptor, and Her2 negative (triple negative)); A2058 (melanoma); U-87 MG (glioblastoma); NCI-H460 (NSCLC); A549 (NSCLC); HPAC (pancreatic cancer, primary); PC3 (prostate cancer, AR); BT474 (breast cancer, Her2 highly positive (Her2hi)); SKOV3 (ovarian cancer, Her2hi); 786-O (renal cancer); UO-31 (renal cancer, MDR); NCI-H740 (SCLC); DMS53 (SCLC); SK-BR3 (breast cancer, Her2hi); ZR-75 (breast cancer, estrogen receptor positive); OVCAR3 (ovarian cancer); HL-60 (APL); OVCAR8/Adr (ovarian cancer, MDR); CEM-Cl (ALL); Nomo-1 (AML); RPMI-8226 (MM)); Raji (lymphoma); SW-480 (colorectal cancer, metastatic); SW-620 (colorectal cancer); and H226 (lung cancer). (Not all compounds were assayed against all cell lines.)
(§3) Table 2 provides the data for proliferation assays using the ^3H thymidine method, with an incubation period of 72 h.

PC3 = test: 3H thymidine proliferation assay, PC3; conditions: 3H thymidine method, 72 h incubation, read-out: EC50, PC3
Method: as §1, §2, §3

BT474 [2] = test: 3H thymidine proliferation assay, BT474; conditions: 3H thymidine method, 72 h incubation, read-out: EC50, BT474
Method: as §1, §2, §3

786-O = test: 3H thymidine proliferation assay, 786-O; conditions: 3H thymidine method, 72 h incubation, read-out: EC50, 786-O
Method: as §1, §2, §3

H740 = test: 3H thymidine proliferation assay, H740; conditions: 3H thymidine method, 72 h incubation, read-out: EC50, H740
Method: as §1, §2, §3

DMS53 [3] = test: 3H thymidine proliferation assay, DMS53; conditions: 3H thymidine method, 72 h incubation, read-out: EC50, DMS53
Method: as §1, §2, §3

OVCAR3 = test: 3H thymidine proliferation assay, OVCAR3; conditions: 3H thymidine method, 72 h incubation, read-out: EC50, OVCAR3
Method: as §1, §2, §3

HL-60 = test: 3H thymidine proliferation assay, HL-60; conditions: 3H thymidine method, 72 h incubation, read-out: EC50, HL-60
Method: as §1, §2, §3

OVCAR8 = test: 3H thymidine proliferation assay, OVCAR8; conditions: 3H thymidine method, 72 h incubation, read-out: EC50, OVCAR8
Method: as §1, §2, §3

Nomo-1 [4] = test: 3H thymidine proliferation assay, Nomo-1; conditions: 3H thymidine method, 72 h incubation, read-out: EC50, Nomo-1
Method: as §1, §2, §3

Raji = test: 3H thymidine proliferation assay, Raji; conditions: 3H thymidine method, 72 h incubation, read-out: EC50, Raji
Method: as §1, §2, §3

Hep3B = test: ATP luminescence proliferation assay, Hep3B; conditions: ATP luminescence, 48 h incubation, read-out: EC50 Hep3B (48 h)
Method: as §1, §2
(§4) Table 3 provides the data for the ATP luminescence proliferation assays, with an incubation period of 48, 72, or 96 h, as noted.

NCI-H460 = test: ATP luminescence proliferation assay, NCI-H460; conditions: ATP luminescence, NCI-H460, 72 h incubation, read-out: EC50 NCI-H460 (72 h)
Method: as §1, §2, §4

HPAC [5] = test: ATP luminescence proliferation assay, HPAC; conditions: ATP luminescence, 72 h incubation, read-out: EC50 HPAC (72 h)
Method: as §1, §2, §4

BT474 [6] = test: ATP luminescence proliferation assay, BT474; conditions: ATP luminescence
Method: as §1, §2, §4

SKOV3 = test: ATP luminescence proliferation assay, SKOV3; conditions: ATP luminescence
Method: as §1, §2, §4

DMS53 [7] = test: ATP luminescence proliferation assay, DMS53; conditions: ATP luminescence, DMS53, 72 h incubation, read-out: EC50 DMS53 (72 h)
Method: as §1, §2, §4

CEM-Cl = test: ATP luminescence proliferation assay, CEM-C1; conditions: ATP luminescence, CEM-C1, 72 h incubation, read-out: EC50 CEM-C1 (72 h)
Method: as §1, §2, §4

Nomo-1 [8] = test: ATP luminescence proliferation assay, Nomo-1; conditions: ATP luminescence, Nomo-1, 72 h incubation, read-out: EC50 Nomo-1 (72 h)
Method: as §1, §2, §4

A2058 = test: 3H thymidine proliferation assay, A2058; conditions: 3H thymidine method, 72 h incubation
Method: as §1, §2, §3

SK-BR3 = test: 3H thymidine proliferation assay, SK-BR3; conditions: 3H thymidine method, 72 h incubation
Method: as §1, §2, §3

[9] = Homo sapiens, BT-474, BT474, 72 h incubation, read-out: EC50 BT474 (72 h)
[10] = Homo sapiens, SK-OV-3, SKOV3, 48 h incubation, read-out: EC50 SKOV3 (48 h)

SMILES: Nc1ccc(C(=O)Nc2ccc3[nH]c(C(=O)N4C[C@@H](CCl)c5c4cc(O)c4ccccc54)cc3c2)cc1 [CBI, reference compound]
EC50 (HPAC [1]; Homo sapiens, HPAC): 0.063 nM
EC50 (PC3; Homo sapiens, PC-3): 0.049 nM
EC50 (BT474 [2]; Homo sapiens, BT-474): 1.2 nM
EC50 (786-O; Homo sapiens, 786-0): 0.035 nM
EC50 (H740; Homo sapiens): 0.098 nM
EC50 (DMS53 [3]; Homo sapiens, DMS-53): 1.5 nM
EC50 (OVCAR3; Homo sapiens, OVCAR-3): 0.071 nM
EC50 (HL-60; Homo sapiens, HL-60): 0.027 nM
EC50 (OVCAR8; Homo sapiens, OVCAR-8): 0.16 nM
EC50 (Nomo-1 [4]; Homo sapiens, NOMO-1): 0.016 nM
EC50 (Raji; Homo sapiens, Raji): 0.013 nM
EC50 (Hep3B; Homo sapiens): 2.6 nM
EC50 (NCI-H460; Homo sapiens): 0.64 nM
EC50 (HPAC [5]; Homo sapiens): 6 nM
EC50 (BT474 [6]; [9]): 5.5 nM
EC50 (SKOV3; [10]): 3 nM
EC50 (DMS53 [7]; Homo sapiens, DMS-53): 3.8 nM
EC50 (CEM-Cl; Homo sapiens): 0.55 nM
EC50 (Nomo-1 [8]; Homo sapiens): 0.37 nM

SMILES: CCC[C@H](NC(=O)[C@H](Cc1ccccc1)NC(=O)c1csc([C@@H](C[C@H](C(C)C)N(C)C(=O)[C@@H](NC(=O)[C@H]2CCCCN2C)[C@@H](C)CC)OC)n1)C(=O)OC [Compound 19]
EC50 (A2058): 0.13 nM
EC50 (HPAC [1]): > 100 nM
EC50 (PC3): > 100 nM
EC50 (BT474 [2]): > 100 nM
EC50 (786-O): > 100 nM
EC50 (H740): 3.8 nM
EC50 (DMS53 [3]): > 100 nM
EC50 (SK-BR3): > 100 nM
EC50 (OVCAR3): 53 nM
EC50 (HL-60): 37 nM
EC50 (OVCAR8): 69 nM
EC50 (Nomo-1 [4]): 1.3 nM
EC50 (Raji): 32 nM
EC50 (Hep3B): 18 nM
EC50 (NCI-H460): 43 nM
EC50 (HPAC [5]): 0.33 nM
EC50 (BT474 [6]; BT474, 48 h incubation, read-out: EC50 BT474 (48 h)): 8.8 nM
EC50 (SKOV3; SKOV3, 72 h incubation, read-out: EC50 SKOV3 (72 h)): 15 nM
EC50 (DMS53 [7]): 87 nM
EC50 (CEM-Cl): 11 nM
EC50 (Nomo-1 [8]): 5.2 nM

EC50 (PC3; Homo sapiens, PC-3): 276 nM
EC50 (BT474 [2]; Homo sapiens, BT-474): 424 nM
EC50 (786-O; Homo sapiens, 786-0): 168 nM
EC50 (H740; Homo sapiens): 255 nM
EC50 (OVCAR3; Homo sapiens, OVCAR-3): 258 nM
EC50 (HL-60; Homo sapiens, HL-60): 56 nM
EC50 (OVCAR8; Homo sapiens, OVCAR-8): 2040 nM
EC50 (Raji; Homo sapiens, Raji): 61 nM
EC50 (Hep3B; Homo sapiens): 443 nM
EC50 (NCI-H460; Homo sapiens): 92 nM
EC50 (BT474 [6]; [9]): 388 nM
EC50 (SKOV3; [10]): 674 nM
SMILES: COc1cccc2c1C(=O)c1c(O)c3c(c(O)c1C2=O)C[C@@](O)(C(=O)CO)C[C@@H]3O[C@H]1C[C@H](N)[C@H](O)[C@H](C)O1 [Dox, doxorubicin, reference compound]
EC50 (HPAC [1]; Homo sapiens, HPAC): 126 nM
EC50 (DMS53 [3]; Homo sapiens, DMS-53): 979 nM
EC50 (Nomo-1 [4]; Homo sapiens, NOMO-1): 105 nM
EC50 (HPAC [5]; Homo sapiens): 215 nM
EC50 (DMS53 [7]; Homo sapiens, DMS-53): 755 nM
EC50 (CEM-Cl; Homo sapiens): 161 nM
EC50 (Nomo-1 [8]; Homo sapiens): 338 nM
